Data taken from the supplement of paper PMC10627819.

What was measured:
Assay in all cases: Bliss interaction score (quartile over a dose matrix) (fitness difference); higher = more antagonism (negative = synergy)
B. subtilis 168 = system: B. subtilis 168
Procedure, shortened: (§1)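 The Bliss score takes observed fitness and subtracts the expected fitness, calculated as a product of single-drug fitness values. Those single-drug values were inferred from the combination data. Fitness is OD595 at entry into stationary phase divided by the plate's robust no-drug mean, capped at 1, and the score is summarised by quartiles across technical, biological and donor/recipient replicates.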

S. aureus DSM 20231 = system: S. aureus DSM 20231
Procedure, shortened: as §1

S. pneumoniae D39V = system: S. pneumoniae D39V
Procedure, shortened: as §1
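Also: first quartile when negative (synergy) and third quartile when positive (antagonism).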

Compound	Bliss interaction score (S. aureus DSM 20231)	also measured
O=C(N[C@H](CO)[C@H](O)c1ccc([N+](=O)[O-])cc1)C(Cl)Cl [Chloramphenicol] + C[C@H]1COc2c(N3CCN(C)CC3)c(F)cc3c(=O)c(C(=O)O)cn1c23 [Levofloxacin]	0.0741	Bliss interaction score (B. subtilis 168): 0.0387; Bliss interaction score (S. pneumoniae D39V): 0.0655
CC[C@H]1OC(=O)[C@H](C)[C@@H](O[C@H]2C[C@@](C)(OC)[C@@H](O)[C@H](C)O2)[C@H](C)[C@@H](O[C@@H]2O[C@H](C)C[C@H](N(C)C)[C@H]2O)[C@](C)(OC)C[C@@H](C)C(=O)[C@H](C)[C@@H](O)[C@]1(C)O [Clarithromycin] + Cc1c(Cl)cccc1Nc1ccccc1C(=O)O [Tolfenamic]	-0.245	
CC[C@H]1OC(=O)[C@H](C)[C@@H](O[C@H]2C[C@@](C)(OC)[C@@H](O)[C@H](C)O2)[C@H](C)[C@@H](O[C@@H]2O[C@H](C)C[C@H](N(C)C)[C@H]2O)[C@](C)(OC)C[C@@H](C)C(=O)[C@H](C)[C@@H](O)[C@]1(C)O [Clarithromycin] + O=C(O)Cc1cc(I)c(Oc2ccc(O)c(I)c2)c(I)c1 [Tiratricol]	0.192	
CCC[C@@H]1C[C@@H](C(=O)N[C@@H]([C@H]2O[C@H](SC)[C@H](O)[C@@H](O)[C@H]2O)[C@H](C)Cl)N(C)C1 [Clindamycin] + CC(C)Cc1ccc(C(C)C(=O)O)cc1 [Ibuprofen]	-0.231	
CCC[C@@H]1C[C@@H](C(=O)N[C@@H]([C@H]2O[C@H](SC)[C@H](O)[C@@H](O)[C@H]2O)[C@H](C)Cl)N(C)C1 [Clindamycin] + C[C@H]1C[C@@H]2[C@H]([C@@H](O)C[C@@]3(C)[C@H]2CC[C@]3(O)C(=O)CO)[C@@]2(C)C=CC(=O)C=C12 [Methylprednisolone]	-0.274	
CCC[C@@H]1C[C@@H](C(=O)N[C@@H]([C@H]2O[C@H](SC)[C@H](O)[C@@H](O)[C@H]2O)[C@H](C)Cl)N(C)C1 [Clindamycin] + Cc1c(Cl)cccc1Nc1ccccc1C(=O)O [Tolfenamic]	-0.169	
CCC[C@@H]1C[C@@H](C(=O)N[C@@H]([C@H]2O[C@H](SC)[C@H](O)[C@@H](O)[C@H]2O)[C@H](C)Cl)N(C)C1 [Clindamycin] + Cc1ccc(C(C)C)c(O)c1 [Thymol]	-0.271	
CCC[C@@H]1C[C@@H](C(=O)N[C@@H]([C@H]2O[C@H](SC)[C@H](O)[C@@H](O)[C@H]2O)[C@H](C)Cl)N(C)C1 [Clindamycin] + Nc1ccc(O)c(C(=O)O)c1 [Mesalamine]	-0.165	
CCC[C@@H]1C[C@@H](C(=O)N[C@@H]([C@H]2O[C@H](SC)[C@H](O)[C@@H](O)[C@H]2O)[C@H](C)Cl)N(C)C1 [Clindamycin] + O=C(O)Cc1cc(I)c(Oc2ccc(O)c(I)c2)c(I)c1 [Tiratricol]	0.278	
CCN(CC)CCOc1ccc(C(=C(Cl)c2ccccc2)c2ccccc2)cc1 [Clomiphene] + CCC(C)C1C(=O)NC(=C)C(=O)NC(C(=O)NC(CSCC(C(=O)N1)NC(=O)/C(=C/C)/NC(=O)C(C(C)CC)N)C(=O)NC2C(SCC(NC(=O)CNC(=O)C3CCCN3C2=O)C(=O)NC(CCCCN)C(=O)NC4C(SCC(NC(=O)CNC(=O)C(NC(=O)C(NC(=O)C(NC(=O)CNC4=O)C)CC(C)C)CCSC)C(=O)NC(CC(=O)N)C(=O)NC(CCSC)C(=O)NC(CCCCN)C(=O)NC5C(SCC6C(=O)NC(C(=O)NC(CSC(C(C(=O)N6)NC(=O)C(NC5=O)C)C)C(=O)NC(CO)C(=O)NC(C(C)CC)C(=O)NC(CC7=CN=CN7)C(=O)NC(C(C)C)C(=O)NC(=C)C(=O)NC(CCCCN)C(=O)O)CC8=CN=CN8)C)C)C)CC(C)C [Nisin]		Bliss interaction score (S. aureus DSM 20231; main component drawn): -0.384
CCN(CC)CCOc1ccc(C(=C(Cl)c2ccccc2)c2ccccc2)cc1 [Clomiphene] + CN[C@@H]1[C@H](O[C@H]2[C@H](O[C@H]3[C@H](O)[C@@H](O)[C@H](N=C(N)N)[C@@H](O)[C@@H]3N=C(N)N)O[C@@H](C)[C@]2(O)C=O)O[C@@H](CO)[C@H](O)[C@H]1O [Streptomycin]	0.238	
CCN(CC)CCOc1ccc(C(=C(Cl)c2ccccc2)c2ccccc2)cc1 [Clomiphene] + COc1cc(Cc2cnc(N)nc2N)cc(OC)c1OC [Trimethoprim]	0.216	
CCN(CC)CCOc1ccc(C(=C(Cl)c2ccccc2)c2ccccc2)cc1 [Clomiphene] + Cn1nnc(-c2ccc(-c3ccc(N4C[C@H](CO)OC4=O)cc3F)cn2)n1 [Tedizolid]	0.263	
CCN(CC)CCOc1ccc(C(=C(Cl)c2ccccc2)c2ccccc2)cc1 [Clomiphene] + N[C@@H]1CONC1=O [CycloserineD]	-0.175	
CCN(CC)CCOc1ccc(C(=C(Cl)c2ccccc2)c2ccccc2)cc1 [Clomiphene] + O=C(O[C@@H]1Cc2c(O)cc(O)cc2O[C@@H]1c1cc(O)c(O)c(O)c1)c1cc(O)c(O)c(O)c1 [EGCG]	0.241	
N[C@@H]1CONC1=O [CycloserineD] + Cc1c(Cl)cccc1Nc1ccccc1C(=O)O [Tolfenamic]	-0.218	

Compound	Bliss interaction score (S. aureus DSM 20231)	also measured
N[C@@H]1CONC1=O [CycloserineD] + O=C(O)c1cc(-c2ccc(F)cc2F)ccc1O [Diflunisal]	-0.151	
O=C(O[C@@H]1Cc2c(O)cc(O)cc2O[C@@H]1c1cc(O)c(O)c(O)c1)c1cc(O)c(O)c(O)c1 [EGCG] + CN1CCC[C@H]1c1cccnc1 [Nicotine]	-0.157	
CC(=O)O[C@H]1C[C@@]2(C)[C@@H](C[C@@H](O)[C@H]3[C@@]4(C)CC[C@@H](O)[C@@H](C)[C@@H]4CC[C@@]32C)/C1=C(\CCC=C(C)C)C(=O)O [Fusidic acid] + CC(C)(O)c1ccccc1CC[C@@H](SCC1(CC(=O)O)CC1)c1cccc(/C=C/c2ccc3ccc(Cl)cc3n2)c1 [Montelukast]	-0.241	
CC(=O)O[C@H]1C[C@@]2(C)[C@@H](C[C@@H](O)[C@H]3[C@@]4(C)CC[C@@H](O)[C@@H](C)[C@@H]4CC[C@@]32C)/C1=C(\CCC=C(C)C)C(=O)O [Fusidic acid] + C[C@H]1C[C@@H]2[C@H]([C@@H](O)C[C@@]3(C)[C@H]2CC[C@]3(O)C(=O)CO)[C@@]2(C)C=CC(=O)C=C12 [Methylprednisolone]	-0.127	
CC(=O)O[C@H]1C[C@@]2(C)[C@@H](C[C@@H](O)[C@H]3[C@@]4(C)CC[C@@H](O)[C@@H](C)[C@@H]4CC[C@@]32C)/C1=C(\CCC=C(C)C)C(=O)O [Fusidic acid] + Cc1c(Cl)cccc1Nc1ccccc1C(=O)O [Tolfenamic]	0.16	
CCC[C@@H]1C[C@@H](C(=O)N[C@@H]([C@H]2O[C@H](SC)[C@H](O)[C@@H](O)[C@H]2O)[C@@H](C)O)N(C)C1 [Lincomycin] + CC(C)(O)c1ccccc1CC[C@@H](SCC1(CC(=O)O)CC1)c1cccc(/C=C/c2ccc3ccc(Cl)cc3n2)c1 [Montelukast]	-0.268	
CCC[C@@H]1C[C@@H](C(=O)N[C@@H]([C@H]2O[C@H](SC)[C@H](O)[C@@H](O)[C@H]2O)[C@@H](C)O)N(C)C1 [Lincomycin] + CCCSc1nc(N[C@@H]2C[C@H]2c2ccc(F)c(F)c2)c2nnn([C@@H]3C[C@H](OCCO)[C@@H](O)[C@H]3O)c2n1 [Ticagrelor]	-0.385	
CCC[C@@H]1C[C@@H](C(=O)N[C@@H]([C@H]2O[C@H](SC)[C@H](O)[C@@H](O)[C@H]2O)[C@@H](C)O)N(C)C1 [Lincomycin] + C[C@H]1C[C@@H]2[C@H]([C@@H](O)C[C@@]3(C)[C@H]2CC[C@]3(O)C(=O)CO)[C@@]2(C)C=CC(=O)C=C12 [Methylprednisolone]	-0.248	
CCC[C@@H]1C[C@@H](C(=O)N[C@@H]([C@H]2O[C@H](SC)[C@H](O)[C@@H](O)[C@H]2O)[C@@H](C)O)N(C)C1 [Lincomycin] + Cc1c(C)c2c(c(C)c1O)CCC(C)(COc1ccc(CC3SC(=O)NC3=O)cc1)O2 [Troglitazone]	0.222	
CCC[C@@H]1C[C@@H](C(=O)N[C@@H]([C@H]2O[C@H](SC)[C@H](O)[C@@H](O)[C@H]2O)[C@@H](C)O)N(C)C1 [Lincomycin] + Cc1c(Cl)cccc1Nc1ccccc1C(=O)O [Tolfenamic]	-0.244	
CCC[C@@H]1C[C@@H](C(=O)N[C@@H]([C@H]2O[C@H](SC)[C@H](O)[C@@H](O)[C@H]2O)[C@@H](C)O)N(C)C1 [Lincomycin] + Cc1cccc(CN2CCN(C(c3ccccc3)c3ccc(Cl)cc3)CC2)c1 [Meclizine]	0.278	
CCC[C@@H]1C[C@@H](C(=O)N[C@@H]([C@H]2O[C@H](SC)[C@H](O)[C@@H](O)[C@H]2O)[C@@H](C)O)N(C)C1 [Lincomycin] + O=C(O)Cc1cc(I)c(Oc2ccc(O)c(I)c2)c(I)c1 [Tiratricol]	0.233	
COc1c(N2C[C@@H]3CCCN[C@@H]3C2)c(F)cc2c(=O)c(C(=O)O)cn(C3CC3)c12 [Moxifloxacin] + Cc1c(Cl)cccc1Nc1ccccc1C(=O)O [Tolfenamic]	-0.12	
O=C1CN(/N=C/c2ccc([N+](=O)[O-])o2)C(=O)N1 [Nitrofurantoin] + CCCSc1nc(N[C@@H]2C[C@H]2c2ccc(F)c(F)c2)c2nnn([C@@H]3C[C@H](OCCO)[C@@H](O)[C@H]3O)c2n1 [Ticagrelor]	-0.277	
O=C1CN(/N=C/c2ccc([N+](=O)[O-])o2)C(=O)N1 [Nitrofurantoin] + CCCc1nc2c(C)cc(-c3nc4ccccc4n3C)cc2n1Cc1ccc(-c2ccccc2C(=O)O)cc1 [Telmisartan]	-0.216	
C/C(=C\C(=O)OCCCCCCCCC(=O)O)C[C@@H]1OC[C@H](C[C@@H]2O[C@H]2[C@@H](C)[C@H](C)O)[C@@H](O)[C@H]1O [Pseudomonic acid] + CCCSc1nc(N[C@@H]2C[C@H]2c2ccc(F)c(F)c2)c2nnn([C@@H]3C[C@H](OCCO)[C@@H](O)[C@H]3O)c2n1 [Ticagrelor]	0.241	
